According to paper PMC7187627 (Antimicrobial Agents and Chemotherapy, 2019):
“Also recorded” adds a separate entry of the source.

Assays:
gut microbiota = experiment: Fecal microbiome analysis by 16S rRNA gene sequencing; format: in vivo, human
Experimental: Fecal microbiota profiles were measured for each sample as each operational taxonomic unit (OTU) species present and the relative abundance of that species, based on a region of 469 bp encompassing the V3 and V4 hypervariable regions of the 16S rRNA gene, following protocols developed at the Department of Microbiology and Immunology, University of Maryland School of Medicine Institute for Genome Sciences, Baltimore, MD ([40][–][42]).
(i) Sample collection and storage and DNA extraction. Fecal samples were collected at nine time points during the study for fecal microbiome analysis: twice before the first dose, on days 1, 4, 7, 9, and 12, and approximately 24 h prior to follow-up visits on day 18 and day 29. The subject was allowed to collect and bring the first fecal sample when admitted (collected within 24 h of admission and kept refrigerated until collected by staff). DNA was extracted from 150 mg of archived stool samples stored at –80°C for 16S rRNA gene amplification and sequencing. Cell lysis was initiated by adding 50 μl of lyzosyme (10 mg/ml), 6 μl of mutanolysin (25,000 U/ml; Sigma-Aldrich), and 3 μl of lysostaphin (4,000 U/ml in sodium acetate; Sigma-Aldrich) and 41 μl of TE50 buffer (10 mM Tris-HCl, 50 mM EDTA [pH 8.0]). Following a 1-h incubation at 37°C, 10 μl of proteinase K (20 mg/ml), 100 μl of 10% SDS, and 20 μl of RNase A (20 mg/ml) were added to the mixture and incubated for 1 h at 55°C. Microbial cells were lysed by mechanical disruption using a bead beater (FastPrep instrument; Qbiogene) set at 6.0 m/s for 30 s. DNA was purified from the lysate using the QIAsymphony robotics platform, consistently providing between 5 and 20 μg of high-quality and amplifiable whole genomic DNA. Following DNA quantitation via the Quant-iTTM PicoGreen double-stranded DNA (dsDNA) assay kit (Life Technologies), samples were diluted to a 5-ng/μl concentration.
PCRs with dually barcoded 16S rRNA universal primers (319F/806R) were set up using a semiautomated platform with a ViaFlo 96 high-performance 96-channel pipettor and performed on Bio-Rad Tetrad 2 instruments with up to 576 dual index barcoding ([40]). […] The cycling parameters were 30 s of denaturation at 98°C, followed by 30 cycles of 15 s at 98°C (denaturing), 15 s at 58°C (annealing), and 15 s at 72°C (elongation), with a final extension at 72°C for 60 s. Controls included a no-template control for each barcode combination, extraction controls, and a DNA sample of known composition (positive control). The presence of amplicons was confirmed by gel electrophoresis on a 2% E-gel 96. PCR products were normalized using the SequalPrep normalization kit (Life Technologies, Carlsbad, CA) and pooled in equimolar amounts (25 ng) in a single tube. Amplification primers and reaction buffer were removed from the pooled amplicon mixtures using an AMPure kit (Agencourt). The purified amplicon mixtures (up to 576 per pool) were sequenced on an Illumina MiSeq instrument using the 300-bp paired-end protocol (MiSeq 300PE) at the Genomics Resource Center (GRC) at the Institute for Genome Sciences, University of Maryland School of Medicine.
(iii) Bioinformatic analysis. For sequence quality control, assembly, and taxonomic assignments, a custom bioinformatics pipeline ([40]) was applied that relies on QIIME software ([43]), UCHIME ([44]), and the RDP Naïve Bayesian classifier ([45]). Baseline for fecal microbiome assessments was defined as the mean of the predose assessments on day 1. Presence was defined as positive abundance. The presence of each OTU species and the shift in presence/absence occurrence from baseline were tabulated by treatment. Shifts were categorized as no change, appearance, and disappearance.
Additional 16S rRNA data analysis was performed at the Division of Biomedical Informatics and Personalized Medicine, University of Colorado. Joined and quality-filtered sequences sharing >97% sequence similarity were binned as OTUs. […]

[1] = set-up: method as in PMID 28584140; details: cited from earlier work

## O=c1cc(NCCCN[C@@H]2CCOc3c(Br)cc(Br)cc32)[nH]c2ccsc12 [CRS3123]
Gut microbiota; 200 mg, day 9, P = 0.006
  median weighted UniFrac distance to placebo arm (community composition): 0.361
Gut microbiota; 200 mg, pretreatment value 0.8%
  proteobacteria, maximum relative abundance: 1.6%
Gut microbiota; 400 mg, day 9, P = 0.027
  median weighted UniFrac distance to placebo arm (community composition): 0.440
Gut microbiota; 400 mg, day 29, P = 0.177
  median weighted UniFrac distance to placebo arm (community composition): 0.4480
Gut microbiota; 600 mg
  proteobacteria, relative abundance: < 10%
Gut microbiota; 600 mg, day 9, P = 0.013
  median weighted UniFrac distance to placebo arm (community composition): 0.663
Gut microbiota; 600 mg, day 29, P = 0.077
  median weighted UniFrac distance to placebo arm (community composition): 0.470
Gut microbiota; 200-mg and 400-mg doses
  increase in proteobacteria: did not see an increase
Gut microbiota; 200-mg dosing group, not different from placebo
  proportion of the major phyla in stool over time: minimal changes over time
Gut microbiota; 400-mg- and 600-mg-BID dosing groups, Bacteroidetes and Actinobacteria increased
  relative abundance of Firmicutes: decreased
Gut microbiota; after 9 days of twice-daily dosing, exception target genus Clostridium
  changes in highly abundant intestinal genera: no significant changes
Gut microbiota; any dose
  loss of phyla during treatment: no phyla were lost
  time until composition was back to baseline levels after stopping the treatment: ≤ 7 days
Gut microbiota; stool microbiome of healthy subjects
  effect on commensal anaerobes (Bacteroides, bifidobacteria, Clostridium clusters XIVa and IV): inactive; also recorded: did not impact
Gut microbiota; treatment phase, day 1 through day 10, versus placebo
  percentage of subjects with Clostridium species isolated at baseline but not at subsequent visits: greater in the CRS3123 treatment groups than in the placebo group
Gut microbiota; two lower doses (200, 400 mg), 10 days twice daily
  disruption of normal gut microbiota: minimal disruption
[1]
  share of oral dose metabolized into glucuronide conjugates detectable in urine: a small fraction
[1]; preclinical testing and SAD study 100 mg to 1,200 mg
  systemic absorption following oral dosing: low systemic absorption
[1]; single oral doses 100 mg to 1,200 mg
  safety and tolerability: safe and well tolerated
